Measured values taken from ChEMBL document CHEMBL1135335, “Multisubstrate analogue inhibitors of glucosamine-6-phosphate synthase from Candida albicans” (Bioorg Med Chem Lett, 2002).
pIC50: −log10 of the molar value. Activity calls are given as the source filed them. No cut-off for these calls is given here.

Columns and labels:
[1] = Concentration required to inhibit glucosamine-6-phosphate synthase (GFAT) isolated from Candida albicans
Saccharomyces cerevisiae = assay: Inhibitory activity against glucosamine-6-phosphate synthase (GFAT) isolated from Saccharomyces cerevisiae at concentrations <10 mM; NI means no inhibition

SMILES | pIC50 [1] | inhibition (Saccharomyces cerevisiae)
NC(CCCCP(=O)(O)O)C(=O)O (configuration not stated) | 3.60 | –
NC(CCP(=O)(O)O)C(=O)O (configuration not stated) | 5.00 | –
NC(CP(=O)(O)O)C(=O)O (configuration not stated) | 8.00 | inactive
NC(CCCCCP(=O)(O)O)C(=O)O (configuration not stated) [AP-7] | 3.57 | –
NC(CCCP(=O)(O)O)C(=O)O (configuration not stated) | 3.68 | –
O=C(O)[C@@H]1C[C@H](CP(=O)(O)O)CCN1 [SELFOTEL] | 6.40 | –
